Source: patent publication US8865672B2, “Prevention of tissue ischemia and related methods” (The United States of America, as represented by the …, priority 2006, dated 2014)

Columns and labels:
[1] = tested on: murine aortic VSMC (WT, TSP1 null, CD47 null); assay: 3D collagen gel contraction assay, murine VSMC; assay type: cell-based, mouse; conditions: for relaxation of pre-contracted VSMC by NO: TSP1 2.2 nM
Experimental: Type I collagen gel (3 mg/ml) with 10×M199 (Gibco, Grand Island, N.Y.) at a 10:1 ratio of collagen to medium was prepared, pH balanced with NaOH and seeded with either HAVSMC or VSMC harvested from aortic segments from C57B16 WT or TSP1 null mice (50,000 cells in 75 μl of gel/well) and aliquoted to 96-well plates (Nunc, Denmark). Plates were incubated for 12 h 37° C. and 5% CO2 allowing for gelation and cell spreading, gently released from the well walls and incubated in serum and additive deficient growth medium with 0.1% BSA in the presence of the indicated treatment agents for 10 h. Contraction was determined by measuring the diameter in perpendicular planes (x, y) of each disk, an average obtained and surface area calculated as (d/2)^2π. Experiments were performed in triplicate. Results represent the mean±SD of at least three separate experiments.
Collagen gel contraction assays were performed using murine derived VSMC (7.5×10^4 cells/gel) as described (Isenberg et al., Blood 2006; Example 2). Wells receiving TSP1 were pre-incubated with the indicated concentrations of agent overnight. Contraction was initiated with either 10% FCS or sphingosine 1-phosphate (S1P, 100 nM).

[2] = tested on: human platelets; assay: Thrombin-induced human platelet aggregation; assay type: cell-based; conditions: for NO delay of thrombin-induced platelet aggregation: DEA/NO 10 μM
Outline: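 Washed human platelets in Tyrode's buffer pH 7.4 (2×10^5/μl) are stirred at 1200 rpm and 37 °C, and optical aggregation is followed for 5 min; under static conditions, A400 is tracked for 5 min instead. TSP1 agents or 1 μM peptide C6d are pre-incubated for 15 min before thrombin ± DEA/NO (10 μM).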

[3] = tested on: human platelets; assay: Human platelet adhesion assay; assay type: cell-based; conditions: for stimulation of adhesion by TSP1: fibrinogen, in the presence of NO
Experimental: Bacteriological Petri dishes (35×10 mm, Becton Dickinson Labware) were pre-coated with collagen (3 μg/ml) or fibrinogen (15 μg/mL) overnight. Following aspiration of non-adherent matrix, dishes were blocked with 1% BSA. Fresh platelets were washed and suspended in Tyrode's buffer and allowed to adhere for 30 minutes. Plates were washed with PBS, fixed with 0.5% glutaraldehyde and stained with 0.02% toluidine blue. Adherent platelets were counted microscopically. In some experiments platelets were pre-incubated with the Rap1 geranylgeranyltransferase inhibitor GGTI-298 (10 μM) for 30 minutes prior to initiating adhesion.

[4] = tested on: VASP; assay: Phospho-Ser239 VASP Western blotting in platelets; assay type: cell-based, human; conditions: 8Br-cGMP 100 μM, TSP1 2.2 nM
Experimental: Washed human platelets (resuspended in Tyrode's buffer to 3×10^8 platelets/mL to a final volume of 0.5 mL) were incubated at 37° C. for 30 minutes before treatment. TSP1 was added 15 minutes prior to treatment. Immediately following treatment, platelets were pelleted at 13,000×g at 4° C. for 15 seconds and resuspended in 1 mL of a lysis buffer containing 10 mM Tris-HCl (pH 7.5), 150 mM NaCl, 1 mM EDTA, 1 mM Na3VO4, 40 mM NaF, 1 μg/mL aprotinin, 1 μg/mL leupeptin, 1 mM phenylmethysulfonylfluoride and 1% […]. This suspension was placed at 4° C. with gentle agitation for 5 minutes before centrifugation at 13000×g for 5 minutes at 4° C. 5 μg lysates were electrophoresed on 4-12% Bis-Tris NuPAGE gels, transferred to Immobilon PVDF membranes and probed with a rabbit polyclonal antiserum against Serine 239-phosphorylated VASP (Santa Cruz Biotechnology, Santa Cruz, Calif.).

TSP1: thrombospondin-1 prepared from human platelets
relaxation of pre-contracted VSMC by NO ([1]; CD47 null VSMC): absent
contractile response to S1P ([1]; TSP1 null murine VSMC): increased the contractile response of TSP1 null cells to S1P
relaxation of pre-contracted VSMC by NO ([1]; wild type cells): completely inhibited
platelet aggregation at high shear in the presence of NO ([2]; GGTI-298 preincubation): maintained its ability to accelerate platelet aggregation
lowest concentration tested, sufficient to accelerate platelet aggregation in the presence of NO ([2]; high shear): 0.022 nM
NO delay of thrombin-induced platelet aggregation ([2]; high shear, thrombin 0.2 U/ml): reversed in a dose-dependent manner
NO delay of thrombin-induced platelet aggregation ([2]; static / low shear conditions): completely abrogated
basal adhesion of platelets on type I collagen and fibrinogen ([3]; TSP1 2.2 nM): moderately increased basal adhesion
decrease in platelet adhesion in response to exogenous NO ([3]; fibrinogen or collagen, DEA/NO 10 μM): lost
stimulation of adhesion by TSP1 [3]: 55±9%
stimulation of adhesion by TSP1 ([3]; following Rap1 blockade with GGTI-298): 25±8%
VASP phosphorylation at Ser239 [4]: inhibited
